How the values were obtained:
Type in all cases: cell-based
Streptococcus agalactiae = test: Minimum Inhibitory Concentration (MIC) Method B
Method: (§1) B) Minimum Inhibitory Concentration (MIC) Method B Test conditions: Evaluation of bactericidal and fungicidal activity in qualitative suspension test (VAH-standard methods, 04-2015). 5 ml of the appropriate dilution of the test product is mixed with 0.1 ml of test suspension and mixed well. After the required action times, the mixture was mixed again. Each 0.1 ml were removed and placed in 5 ml of CSL-bouillon without neutralizing agents.

Gardnerella vaginalis = test: Minimum Inhibitory Concentration (MIC) Method B
Method: as §1

[1] = test system: Fannyhessea vaginae (Atopobium vaginae); test: Minimum Inhibitory Concentration (MIC) Method B
Method: as §1

Staphylococcus aureus = test: Preservative Efficacy Test (method C); details: S. aureus; for Colony counts: 1% test substance in o/w emulsion; for Relative colony counts: relative to inoculum = 1.0000
Method: (§2) C) Preservative Efficacy Test
(§3) Test conditions: Sample (1% test substance in adequate formulation (o/w emulsion)) was inoculated with 0.1 ml of the microbial suspensions, homogenized, and incubated at 20° C.-25° C. Colony count was determined after 2, 7, 14, and 28 days of incubation through plating on adequate solid medium.
(§4) 3-hydroxypropyl caprylate was tested in a potential formulation against the microorganisms Escherichia coli, Pseudomonas aeruginosa, Staphylococcus aureus, and Candida albicans using method C. Resulting colony counts are depicted in Table 4.

Candida albicans = test: Preservative Efficacy Test (method C)
Method: as §2, §3, §4

Escherichia coli = test: Preservative Efficacy Test (method C); details: E. coli; for Colony counts: 1% test substance in o/w emulsion; for Relative colony counts: relative to inoculum = 1.0000
Method: as §2, §3, §4

Pseudomonas aeruginosa = test: Preservative Efficacy Test (method C); details: P. aeruginosa; for Colony counts: 1% test substance in o/w emulsion; for Relative colony counts: relative to inoculum = 1.0000
Method: as §2, §3, §4

CCCCCCCC(=O)OCCCO [3-hydroxypropyl caprylate]
250000 cfu/g formulation: Colony counts (Staphylococcus aureus; Day 2, inoculum 3500000)
0.0000: Relative colony counts (Candida albicans; Day 7, relative to inoculum = 1.0000) | Relative colony counts (Candida albicans; Day 14, relative to inoculum = 1.0000) | Relative colony counts (Candida albicans; Day 28, relative to inoculum = 1.0000) | Relative colony counts (Escherichia coli; Day 2) | Relative colony counts (Escherichia coli; Day 7) | Relative colony counts (Escherichia coli; Day 14) | Relative colony counts (Escherichia coli; Day 28) | Relative colony counts (Pseudomonas aeruginosa; Day 2) | Relative colony counts (Pseudomonas aeruginosa; Day 7) | Relative colony counts (Pseudomonas aeruginosa; Day 14) | Relative colony counts (Pseudomonas aeruginosa; Day 28)
10000 µg/mL: MIC (Streptococcus agalactiae)
0.0786: Relative colony counts (Candida albicans; Day 2, relative to inoculum = 1.0000)
0.0714 fraction of inoculum: Relative colony counts (Staphylococcus aureus; Day 2)
0.0000 fraction of inoculum: Relative colony counts (Staphylococcus aureus; Day 7) | Relative colony counts (Staphylococcus aureus; Day 14) | Relative colony counts (Staphylococcus aureus; Day 28)
>10 cfu/g formulation: Colony counts (Staphylococcus aureus; Day 7) | Colony counts (Staphylococcus aureus; Day 14) | Colony counts (Staphylococcus aureus; Day 28) | Colony counts (Candida albicans; Day 7, 1% test substance in o/w emulsion) | Colony counts (Candida albicans; Day 14, 1% test substance in o/w emulsion) | Colony counts (Candida albicans; Day 28, 1% test substance in o/w emulsion) | Colony counts (Escherichia coli; Day 7) | Colony counts (Escherichia coli; Day 14) | Colony counts (Escherichia coli; Day 28) | Colony counts (Pseudomonas aeruginosa; Day 2, inoculum 4400000) | Colony counts (Pseudomonas aeruginosa; Day 7) | Colony counts (Pseudomonas aeruginosa; Day 14) | Colony counts (Pseudomonas aeruginosa; Day 28)
500 µg/mL: MIC (Gardnerella vaginalis) | MIC [1]
15 cfu/g formulation: Colony counts (Escherichia coli; Day 2, inoculum 4500000)
330000 cfu/g formulation: Colony counts (Candida albicans; Day 2, 1% test substance in o/w emulsion, inoculum 4200000)

From patent publication US20220117867A1, “ANTIMICROBIAL ACTIVITY OF FATTY ACID ESTERS AND COMBINATIONS THEREOF” (SYMRISE AG, priority 2019, published 2022)
